Experimental data published in US20250032526A1, “COMPOSITION, METHOD FOR PREPARING SAME, AND USE THEREOF” (priority 2022, published 2025).

What was measured:
[1] = Stability investigation of related substance (capsules); assay type: physicochemical; conditions: 0 day
From the text: The capsules provided by the present invention were taken and separately put under the conditions shown in Table 18 to investigate the stability.

[2] = Compatibility of raw material and auxiliary material (content measurement); assay type: physicochemical
Description: The mixture was allowed to stand at 60° C. high temperature condition (60° C.), high humidity condition (25° C., 92.5% RH), acceleration condition (40° C.±2° C., 75% RH±5%), and light condition (4500 1×±500 1×) for 10 days and 30 days, and then taken out to detect the content and the change of the related substance.

Impurity (%) RRT 0.42 [1]: 0.47%
Impurity (%) RRT 0.49 (0.48) [1]: 0.19%
Impurity (%) RRT 1.16 [1]: 0.75%
Impurity (%) RRT 1.42 (1.38) [1]: 0.53%
Impurity (%) RRT 1.44 (1.40) [1]: 0.16%
Impurity (%) RRT 1.70 (1.65) [1]: 0.04%
Impurity (%) Total [1]: 2.10%
Content measurement result, 25° C./92.5% RH, open, 10 day ([2]; 25° C./92.5% RH, 10 day): 100.3%
Content measurement result, 60° C., open, 10 day ([2]; 60° C., 10 day): 100.3%
Content measurement result, 60° C., open, 30 day ([2]; 60° C., 30 day): 100.5%
Structure (SMILES): N#C[C@@]1(c2ccc3c(N)ncnn23)O[C@H](COC(=O)C2CCCCC2)[C@@H](O)[C@H]1O [ATV014]
